Read-outs that look alike come from different tables or passages of the source.

The target of one assay is Mouse cGAS (Mus musculus, UniProt Q8C6L5). As to the kind of experiment: cGAS enzymatic assay with mouse cGAS. In kind it is biochemical. As to the method:
Biochemical and biophysical analysis: Potency and MOA studies, including Mn^2+ sensitivity, are performed using the cGAS enzymatic assay. Dose response experiments are used to determine IC50 values under basal conditions (5 mM MgCl2, 100 μM ATP/GTP), and with the addition of physiological levels of Mn (0.2 mM) using human and mouse cGAS. Ligand optimization is driven by potency with the human enzyme; potency with mouse cGAS informs selection of an appropriate disease model for efficacy studies. Competition with ATP and GTP is assessed by comparing basal IC50 values to those in the presence of saturating ATP or GTP, and subsequently confirmed by measuring velocity vs. substrate at varying ATP or GTP levels. Inhibitor residence times (1/koff) are used as a key parameter for prioritizing compounds and driving SAR, because a longer residence time often results from an allosteric mechanism, and can also correlate with improved cellular activity. The cGAS enzymatic assay is used with the jump dilution method to measure residence times (inhibitor dissociation rates), as described for kinases using the very similar ADP assay. Biophysical methods, including SPR and TSA, are used as orthologous methods for residence time measurements and kd estimates.

Assay [1] relates to Kinase, PDE, GTPase, ENPP1 (Abl1, PKA, TBK1, Rac1, PDE4A, ENPP1). The assay can be described thus: Selectivity panel of nucleotide-utilizing enzymes. In kind it is biochemical. As to the method:
Selectivity profiling: A panel of nucleotide-utilizing enzymes that included kinases (Abl1, PKA, TBK1—which transduces cGAS/STING signals, see FIG. 5A) a GTPase (Rac1), a phosphodiesterase (PDE4A), and ENPP1, a nucleotidase that degrades cGAMP, was used preliminarily. cGAS assays were used to perform dose response measurements with cGAS inhibitors. In addition to these enzymes, inhibitors are tested with three other members of the oligoadenylate synthases (OAS), nucleic acid sensors that activate innate immunity via production of short, 2′-5′ oligoadenylate second messengers. Methods for expression and purification of the human and/or porcine enzymes in E. coli or baculovirus-infected insect cells have been developed as well as a simple, absorbance-based assay using commercially available pyrophosphate kit. In addition, an FP-based assay (competitive displacement of a fluor-cGAMP tracer) is developed to test compounds as ligands for STING (which could be one explanation for the partial activity of Compound 15 in cells stimulated with cGAMP) (FIG. 5).

Assay [2] concerns IRF3-driven Luc expression in THP-1 Dual cells. The assay can be described thus: THP-1 Dual IRF3-Luc reporter assay. Type of assay: cell-based, human. The method, then:
(§1) IFN induction in human monocyte cell lines: The human monocyte cell line THP-1 gives a robust cGAS/STING-dependent type I IFN response and has been used extensively for studies on the pathway. Typically, cells are stimulated by transfection with dsDNA and gene expression is assessed using an ELISA for IFNβ, a reporter gene assay, and/or cGAS/STING pathway markers such as STING phosphorylation. These assays were validated using the TBK1 inhibitor, BX-795, which acts downstream of cGAS/STING, as a probe; THP-1 Dual cells (Invivogen, San Diego) are used as the reporter cell line for routine compound testing (FIG. 5A). These assays were optimized, including equalizing responses with transfected DNA and cGAMP and comparing responses between undifferentiated cells and cells that have been differentiated to macrophages (which show little difference). […] Stimulation of THP-1 Dual cells with damage-associated molecular pattern molecules (DAMPs) that act through pattern recognition receptors other than cGAS provides another way to confirm the specificity of putative cGAS inhibitors.
Background: A reporter such as luciferase makes a cellular process visible.

The test system of assay [3] is NFκB-driven SEAP expression in THP-1 Dual cells. The assay can be described thus: THP-1 Dual NFκB-SEAP reporter assay. In kind it is cell-based, human. Conditions: THP-1 Dual cells. As to the method:
as §1

Another assay addresses cGAS (Homo sapiens, UniProt Q8N884). The assay can be described thus: cGAS enzymatic assay (FP/TR-FRET detection of cGAMP). In kind it is biochemical. Set-up: The cGAS assay was used to screen 100,000 compounds with full-length human cGAS; 6xHis; made in house. Put shortly:
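Homogeneous enzymatic assay with FP and TR-FRET read-outs, full-length enzyme at 30 nM. IC50 from dose-response under basal conditions (5 mM MgCl2, 100 μM ATP/GTP), also with 0.2 mM Mn added; values reported as letter bins from A (<100 nM) to E (>10 μM).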
For orientation: In TR-FRET formats the signal depends on donor and acceptor labels being close together.

Chain of cGAS (Q8N884 whole entry): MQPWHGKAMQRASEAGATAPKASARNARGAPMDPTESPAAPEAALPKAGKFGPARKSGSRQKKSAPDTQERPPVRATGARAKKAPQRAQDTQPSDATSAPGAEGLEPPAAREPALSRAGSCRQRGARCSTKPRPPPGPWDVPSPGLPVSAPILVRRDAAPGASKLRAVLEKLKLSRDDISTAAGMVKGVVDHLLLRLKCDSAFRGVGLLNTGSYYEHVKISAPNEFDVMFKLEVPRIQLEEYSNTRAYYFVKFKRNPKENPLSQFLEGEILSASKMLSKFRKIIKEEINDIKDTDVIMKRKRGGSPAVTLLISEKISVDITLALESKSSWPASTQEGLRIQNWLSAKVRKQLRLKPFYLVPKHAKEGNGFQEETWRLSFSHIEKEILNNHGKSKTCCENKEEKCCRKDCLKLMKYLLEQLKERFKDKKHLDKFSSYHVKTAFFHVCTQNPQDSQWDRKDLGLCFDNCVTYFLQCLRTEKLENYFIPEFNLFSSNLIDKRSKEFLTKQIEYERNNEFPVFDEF
Chain of Mouse cGAS (Q8C6L5 whole entry): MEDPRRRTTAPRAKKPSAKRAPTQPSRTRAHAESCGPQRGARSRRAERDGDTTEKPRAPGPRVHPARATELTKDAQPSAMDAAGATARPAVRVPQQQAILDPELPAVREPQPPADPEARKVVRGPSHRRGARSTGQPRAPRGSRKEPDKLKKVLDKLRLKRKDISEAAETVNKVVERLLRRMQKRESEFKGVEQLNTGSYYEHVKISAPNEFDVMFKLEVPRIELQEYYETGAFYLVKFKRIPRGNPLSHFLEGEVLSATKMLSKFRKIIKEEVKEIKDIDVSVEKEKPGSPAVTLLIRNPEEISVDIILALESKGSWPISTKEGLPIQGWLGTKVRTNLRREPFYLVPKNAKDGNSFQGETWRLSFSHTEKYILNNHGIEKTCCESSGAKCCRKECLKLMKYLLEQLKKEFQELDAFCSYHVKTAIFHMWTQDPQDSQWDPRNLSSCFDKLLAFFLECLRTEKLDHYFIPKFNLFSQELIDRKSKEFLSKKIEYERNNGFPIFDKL

For `Cc1nc(N2CCC[C@H]2C(=O)O)c2oc3ccccc3c2n1` [Compound 15, (2-methylbenzofuro[3,2-d]pyrimidin-4-yl)-L-proline], the IC50 at Mouse cGAS was greater than 150000 nM; on cGAS (5 mM Mg^2+, 0.2 mM Mn^2+, read-out: IC50 (5 mM Mg^2+, 0.2 mM Mn^2+)), 10800 ± 2400 nM; at cGAS (5 mM Mg^2+, read-out: IC50 (5 mM Mg^2+)), 1260 ± 570 nM; at cGAS (cGAS (30 nM), with Mn^2+, read-out: Inhibition cGAS + Mn^2+), 1000 to 10000 nM; at cGAS (cGAS (30 nM), read-out: Inhibition cGAS), 500 to 1000 nM. Further, in assay [1], the “Off-Target Activity (Kinase, PDE, GTPase, ENPP1)” value is given as “None”. In addition, the “inhibitory activity with a panel of nucleotide-utilizing enzymes” value in assay [1] (at 200 μM) is “lack of inhibitory activity”. The “inhibition of IRF3 (Luc)-driven transcription” value in assay [2] (THP-1 Dual cells) is 50-75%. Moreover, the “inhibition in cGAMP-stimulated cells with cGAS present” value in assay [2] (cGAMP-stimulated THP-1 Dual cells) is “still caused inhibition, though to a lesser degree”. For the same compound, the cGAS-dependent cellular activity result in assay [2] (human monocyte cell line THP-1) was “cGAS-dependent inhibition of type I IFN”. The “inhibition of NFκB (SEAP)-driven transcription” value in assay [3] is 50-75%. Further, the MOA result at cGAS (competition with ATP) is recorded as “ATP Competitive”.

Source of the values: patent US20220073532A1, “INHIBITORS OF CGAS ACTIVITY AS THERAPEUTIC AGENTS” (BELLBROOK LABS, LLC, priority 2019, published 2022).
